Test results from patent US9428464B2, “Kynurenine-3-monooxygenase inhibitors, pharmaceutical compositions, and methods of use thereof” (CHDI Foundation, Inc., priority 2011, dated 2016).
“And” between values parts separate entries of the source, which are not always exact repeats. Equal entries are not always repeated.

Test system: KMO
Test: KMO activity assay: L-Kynurenine hydroxylation to 3-Hydroxy-Kynurenine, quantified by LC/MS
Type: biochemical
Details: compound at 10 uM, footnote: some portion of activity of amides may be due to contribution of acid precursor
Protocol: A generalized procedure for monitoring L-Kynurenine (KYN) hydroxylation to form product 3-Hydroxy-Kynurenine (3OH-KYN) by LC/MS is described below. Product is quantified by multiple reaction monitoring using MS.
A method of monitoring L-Kynurenine (KYN) hydroxylation to form product 3-Hydroxy-Kynurenine (3OH-KYN) by LC/MS is described below. Product is quantified by multiple reaction monitoring.
• Compound: Stock concentrations: 10 mM in 100% DMSO • Enzyme: KMO enzyme prepared at Evotec via mitochondria isolation from CHO-GST HIS KMO cells • Substrate: L-Kynurenine (Sigma: Cat #K3750) • [stock concentration: 10 mM in 100 mM potassium phosphate buffer, pH 7.4]
A method of monitoring L-Kynurenine (KYN) hydroxylation to form 3-Hydroxy-Kynurenine (3OH-KYN) by LC/MS is described. Product is quantified by multiple reaction monitoring (MRM method).

Structure (SMILES): O=C(Nc1ccc(N2CCOCC2)cc1)c1cc(-c2ccc(Cl)c(Cl)c2)ncn1 [6-(3,4-Dichloro-phenyl)-pyrimidine-4-carboxylic acid (4-morpholin-4-yl-phenyl)-amide]
- % Inhibition at 10 uM: 101.19%

Structure (SMILES): Cl.O=C(Nc1ccc(N2CCNCC2)cc1)c1cc(-c2ccc(Cl)c(Cl)c2)ncn1 [6-(3,4-Dichloro-phenyl)-pyrimidine-4-carboxylic acid (4-piperazin-1-yl-phenyl)-amide hydrochloride salt]
- % Inhibition at 10 uM: 93.13%

Structure (SMILES): O=C(Nc1ccc(N2CCNCC2)cc1)c1cc(-c2ccc(Cl)c(Cl)c2)ncn1 [6-(3,4-Dichloro-phenyl)-pyrimidine-4-carboxylic acid (4-piperazin-1-yl-phenyl)-amide]
- % Inhibition at 10 uM: 43.46%

Structure (SMILES): Cc1nnc(CNC(=O)c2cc(-c3ccc(Cl)c(Cl)c3)ncn2)o1 [6-(3,4-Dichloro-phenyl)-pyrimidine-4-carboxylic acid (5-methyl-[1,3,4]oxadiazol-2-ylmethyl)-amide]
- % Inhibition at 10 uM: 100.815%

Structure (SMILES): O=C1CCC(NC(=O)c2cc(-c3ccc(Cl)c(Cl)c3)ncn2)N1 (centres unmarked) [6-(3,4-Dichloro-phenyl)-pyrimidine-4-carboxylic acid (5-oxo-pyrrolidin-2-yl)-amide]
- % Inhibition at 10 uM: 93.08%

Structure (SMILES): O=C1CC(NC(=O)c2cc(-c3ccc(Cl)c(Cl)c3)ncn2)CN1 (centres unmarked) [6-(3,4-Dichloro-phenyl)-pyrimidine-4-carboxylic acid (5-oxo-pyrrolidin-3-yl)-amide]
- % Inhibition at 10 uM: 83.73%

Structure (SMILES): CC(C)(C)c1nnc(NC(=O)c2cc(-c3ccc(Cl)c(Cl)c3)ncn2)o1 [6-(3,4-Dichloro-phenyl)-pyrimidine-4-carboxylic acid (5-tert-butyl-[1,3,4]oxadiazol-2-yl)-amide]
- % Inhibition at 10 uM: 101.4%

Structure (SMILES): O=C(Nc1nnc(C(F)(F)F)o1)c1cc(-c2ccc(Cl)c(Cl)c2)ncn1 [6-(3,4-Dichloro-phenyl)-pyrimidine-4-carboxylic acid (5-trifluoromethyl-[1,3,4]oxadiazol-2-yl)-amide]
- % Inhibition at 10 uM: 102.78%

Structure (SMILES): Cc1ccc(NC(=O)c2cc(-c3ccc(Cl)c(Cl)c3)ncn2)nn1 [6-(3,4-Dichloro-phenyl)-pyrimidine-4-carboxylic acid (6-methyl-pyridazin-3-yl)-amide]
- % Inhibition at 10 uM: 77.125%

Structure (SMILES): Cl.O=C(Nc1ccc(N2CCNCC2)nc1)c1cc(-c2ccc(Cl)c(Cl)c2)ncn1 [6-(3,4-Dichloro-phenyl)-pyrimidine-4-carboxylic acid (6-piperazin-1-yl-pyridin-3-yl)-amide hydrochloride salt]
- % Inhibition at 10 uM: 87.82%

Structure (SMILES): O=C(N[C@H]1c2ccccc2C[C@H]1O)c1cc(-c2ccc(Cl)c(Cl)c2)ncn1 [6-(3,4-Dichloro-phenyl)-pyrimidine-4-carboxylic acid ((1S,2R)-2-hydroxy-indan-1-yl)-amide]
- % Inhibition at 10 uM: 97.78%

Structure (SMILES): C[C@@H](NC(=O)c1cc(-c2ccc(Cl)c(Cl)c2)ncn1)c1ccccc1 [6-(3,4-Dichloro-phenyl)-pyrimidine-4-carboxylic acid ((R)-1-phenyl-ethyl)-amide]
- % Inhibition at 10 uM: 101.25%

Structure (SMILES): C[C@@H](NC(=O)c1cc(-c2ccc(Cl)c(Cl)c2)ncn1)c1cccnc1 [6-(3,4-Dichloro-phenyl)-pyrimidine-4-carboxylic acid ((R)-1-pyridin-3-yl-ethyl)-amide]
- % Inhibition at 10 uM: 90.86%

Structure (SMILES): C[C@H](CO)NC(=O)c1cc(-c2ccc(Cl)c(Cl)c2)ncn1 [6-(3,4-Dichloro-phenyl)-pyrimidine-4-carboxylic acid ((R)-2-hydroxy-1-methyl-ethyl)-amide]
- % Inhibition at 10 uM: 97.775%

Structure (SMILES): CC(NC(=O)c1cc(-c2ccc(Cl)c(Cl)c2)ncn1)[C@@H](C)O (stereo partly drawn) [6-(3,4-Dichloro-phenyl)-pyrimidine-4-carboxylic acid ((R)-2-hydroxy-1-methyl-propyl)-amide]
- % Inhibition at 10 uM: 66.43%

Structure (SMILES): C[C@@H](O)CNC(=O)c1cc(-c2ccc(Cl)c(Cl)c2)ncn1 [6-(3,4-Dichloro-phenyl)-pyrimidine-4-carboxylic acid ((R)-2-hydroxy-propyl)-amide]
- % Inhibition at 10 uM: 100.71%

Structure (SMILES): CC(=O)N1CC[C@H](NC(=O)c2cc(-c3ccc(Cl)c(Cl)c3)ncn2)C1 [6-(3,4-Dichloro-phenyl)-pyrimidine-4-carboxylic acid ((S)-1-acetyl-pyrrolidin-3-yl)-amide]
- % Inhibition at 10 uM (10 µM): 84.87% and 98.54%

Structure (SMILES): C[C@H](NC(=O)c1cc(-c2ccc(Cl)c(Cl)c2)ncn1)C(N)=O [6-(3,4-Dichloro-phenyl)-pyrimidine-4-carboxylic acid ((S)-1-carbamoyl-ethyl)-amide]
- % Inhibition at 10 uM: 47.73%

Structure (SMILES): CC[C@H](NC(=O)c1cc(-c2ccc(Cl)c(Cl)c2)ncn1)C(N)=O [6-(3,4-Dichloro-phenyl)-pyrimidine-4-carboxylic acid ((S)-1-carbamoyl-propyl)-amide]
- % Inhibition at 10 uM: 87.6%

Structure (SMILES): C[C@H](NC(=O)c1cc(-c2ccc(Cl)c(Cl)c2)ncn1)c1ccccc1 [6-(3,4-Dichloro-phenyl)-pyrimidine-4-carboxylic acid ((S)-1-phenyl-ethyl)-amide]
- % Inhibition at 10 uM: 102.29%

Structure (SMILES): C[C@H](NC(=O)c1cc(-c2ccc(Cl)c(Cl)c2)ncn1)c1cccnc1 [6-(3,4-Dichloro-phenyl)-pyrimidine-4-carboxylic acid ((S)-1-pyridin-3-yl-ethyl)-amide]
- % Inhibition at 10 uM: 85.1%

Structure (SMILES): C[C@H](NC(=O)c1cc(-c2ccc(Cl)c(Cl)c2)ncn1)c1ccncc1 [6-(3,4-Dichloro-phenyl)-pyrimidine-4-carboxylic acid ((S)-1-pyridin-4-yl-ethyl)-amide]
- % Inhibition at 10 uM: 91.79%

Structure (SMILES): C[C@@H](CO)NC(=O)c1cc(-c2ccc(Cl)c(Cl)c2)ncn1 [6-(3,4-Dichloro-phenyl)-pyrimidine-4-carboxylic acid ((S)-2-hydroxy-1-methyl-ethyl)-amide]
- % Inhibition at 10 uM: 99.59%

Structure (SMILES): C[C@H](O)CNC(=O)c1cc(-c2ccc(Cl)c(Cl)c2)ncn1 [6-(3,4-Dichloro-phenyl)-pyrimidine-4-carboxylic acid ((S)-2-hydroxy-propyl)-amide]
- % Inhibition at 10 uM: 86.83%

Structure (SMILES): Cl.O=C(N[C@@H]1CCNC1)c1cc(-c2ccc(Cl)c(Cl)c2)ncn1 [6-(3,4-Dichloro-phenyl)-pyrimidine-4-carboxylic acid (R)-pyrrolidin-3-ylamide hydrochloride salt]
- % Inhibition at 10 uM: 95.94%

Structure (SMILES): Cl.O=C(N[C@H]1CCNC1)c1cc(-c2ccc(Cl)c(Cl)c2)ncn1 [6-(3,4-Dichloro-phenyl)-pyrimidine-4-carboxylic acid (S)-pyrrolidin-3-ylamide hydrochloride salt]
- % Inhibition at 10 uM: 89.355%

Structure (SMILES): O=C(N[C@@H]1CCOC1)c1cc(-c2ccc(Cl)c(Cl)c2)ncn1 [6-(3,4-Dichloro-phenyl)-pyrimidine-4-carboxylic acid (tetrahydro-furan-3R-yl)-amide]
- % Inhibition at 10 uM: 41.5%

Structure (SMILES): O=C(N[C@H]1CCOC1)c1cc(-c2ccc(Cl)c(Cl)c2)ncn1 [6-(3,4-Dichloro-phenyl)-pyrimidine-4-carboxylic acid (tetrahydro-furan-3S-yl)-amide]
- % Inhibition at 10 uM: 53.41%

Structure (SMILES): O=C(NC1CCOCC1)c1cc(-c2ccc(Cl)c(Cl)c2)ncn1 [6-(3,4-Dichloro-phenyl)-pyrimidine-4-carboxylic acid (tetrahydro-pyran-4-yl)-amide]
- % Inhibition at 10 uM: 55.35%

Structure (SMILES): O=C(NCC1CCOCC1)c1cc(-c2ccc(Cl)c(Cl)c2)ncn1 [6-(3,4-Dichloro-phenyl)-pyrimidine-4-carboxylic acid (tetrahydro-pyran-4-ylmethyl)-amide]
- % Inhibition at 10 uM: 101.39%

Structure (SMILES): O=C(Nc1nnco1)c1cc(-c2ccc(Cl)c(Cl)c2)ncn1 [6-(3,4-Dichloro-phenyl)-pyrimidine-4-carboxylic acid [1,3,4]oxadiazol-2-ylamide]
- % Inhibition at 10 uM: 101.93%

Structure (SMILES): CC(NC(=O)c1cc(-c2ccc(Cl)c(Cl)c2)ncn1)c1ccc2c(c1)NC(=O)CO2 (centres unmarked) [6-(3,4-Dichloro-phenyl)-pyrimidine-4-carboxylic acid [1-(3-oxo-3,4-dihydro-2H-benzo[1,4]oxazin-6-yl)-ethyl]-amide]
- % Inhibition at 10 uM: 99.66%

Structure (SMILES): O=C1CN(C(=O)CNC(=O)c2cc(-c3ccc(Cl)c(Cl)c3)ncn2)CCN1 [6-(3,4-Dichloro-phenyl)-pyrimidine-4-carboxylic acid [2-oxo-2-(3-oxo-piperazin-1-yl)-ethyl]-amide]
- % Inhibition at 10 uM: 62.23%

Structure (SMILES): CC1CN(c2cccc(NC(=O)c3cc(-c4ccc(Cl)c(Cl)c4)ncn3)c2)CC(C)O1 (centres unmarked) [6-(3,4-Dichloro-phenyl)-pyrimidine-4-carboxylic acid [3-(2,6-dimethyl-morpholin-4-yl)-phenyl]-amide]
- % Inhibition at 10 uM: 57.56%

Structure (SMILES): CN1CCN(c2cccc(NC(=O)c3cc(-c4ccc(Cl)c(Cl)c4)ncn3)c2)CC1.Cl [6-(3,4-Dichloro-phenyl)-pyrimidine-4-carboxylic acid [3-(4-methyl-piperazin-1-yl)-phenyl]-amide hydrochloride salt]
- % Inhibition at 10 uM: 85.89%

Structure (SMILES): CN1CCN(c2cccc(NC(=O)c3cc(-c4ccc(Cl)c(Cl)c4)ncn3)c2)CC1 [6-(3,4-Dichloro-phenyl)-pyrimidine-4-carboxylic acid [3-(4-methyl-piperazin-1-yl)-phenyl]-amide]
- % Inhibition at 10 uM: 75.48%

Structure (SMILES): CC1CN(c2ccc(NC(=O)c3cc(-c4ccc(Cl)c(Cl)c4)ncn3)cc2)CC(C)O1.Cl (centres unmarked) [6-(3,4-Dichloro-phenyl)-pyrimidine-4-carboxylic acid [4-(2,6-dimethyl-morpholin-4-yl)-phenyl]-amide hydrochloride salt]
- % Inhibition at 10 uM: 97.61%

Structure (SMILES): Cl.O=C(Nc1ccc(OCCN2CCOCC2)cc1)c1cc(-c2ccc(Cl)c(Cl)c2)ncn1 [6-(3,4-Dichloro-phenyl)-pyrimidine-4-carboxylic acid [4-(2-morpholin-4-yl-ethoxy)-phenyl]-amide hydrochloride salt]
- % Inhibition at 10 uM: 90.48%
